Values after ≈ are worked out from the molar mass of the structure shown. Where two headings read alike, the source gives them in different places.

For one test, the system named is E. coli bacteria. Put plainly: Antimicrobial activity against E. coli (inhibition zone, MIC). The note with it: in vitro. Type of test: cell-based.
The test system of a further test is Aspergillus flavus fungi. Put plainly: Antifungal activity against Aspergillus flavus (inhibition zone, MIC). Type of test: cell-based. As to conditions: in vitro.
In test [1] the test system is breast cancer cell line. Put plainly: In vitro anti-cancer activity against breast cancer cell line. Type of test: cell-based, human.
Test [2] concerns breast cancer cell line. Put plainly: Antioxidant activity. Type of test: cell-based. The note with it: printed as against a breast cancer cell line.
Setting [3] is: listed as prepared nano complex.

Take “4-Bromo-2-[(9H-purin-6-ylimino)-methyl]-phenol imine Pd(II) complex [prepared complex]”: the MIC in the test on E. coli bacteria (setting [3]) is 1.00 µg/mL; with E. coli bacteria (listed as present complex), “about 1.0 μg/ml”; against Aspergillus flavus fungi it was 1.50 µg/mL; against Aspergillus flavus fungi (listed as present complex), “about 1.50 μg/ml”. Further, the inhibition zone was 40 mm in the test with E. coli bacteria (setting [3]), “about 40 mm” with E. coli bacteria (listed as present complex), 30 mm with Aspergillus flavus fungi and “about 30 mm” in the test on Aspergillus flavus fungi (listed as present complex). The “IC50 (anticancer activity)” value in the test on breast cancer cell line [1] came to 2.2 µg/mL. Also, the “IC50 (antioxidant activity)” value with breast cancer cell line [2] came out at 7.5 µg/mL.

Take `O=C1O[C@H]([C@@H](O)CO)C(O)=C1O` [1-ascorbic acid, reference compound]: the “IC50 (antioxidant activity)” value with breast cancer cell line [2] is 45.7 µg/mL (≈ 259 µM).

`CC[C@]1(O)C[C@@H]2CN(CCc3c([nH]c4ccccc34)[C@@](C(=O)OC)(c3cc4c(cc3OC)N(C)[C@H]3[C@@](O)(C(=O)OC)[C@H](OC(C)=O)[C@]5(CC)C=CCN6CC[C@]43[C@@H]65)C2)C1` [vinblastine, reference compound]: the concentration for half-maximal inhibition (IC50) with breast cancer cell line [1] (Homo sapiens, read-out: IC50 (anticancer activity)) was 4.7 µg/mL (≈ 5.8 µM).

For `CC1COc2c(N3CCN(C)CC3)c(F)cc3c(=O)c(C(=O)O)cn1c23` (stereo not shown) [Ofloxacin, reference compound], the MIC in the test on E. coli bacteria (Escherichia coli, read-out: MIC) amounted to 2.5 µg/mL (≈ 6.92 µM). In the test on E. coli bacteria, this compound displayed an inhibition zone of 35 mm.

With `OC(Cn1cncn1)(Cn1cncn1)c1ccc(F)cc1F` [Fluconazol, reference compound], the inhibition zone in the test on Aspergillus flavus fungi came to 24 mm. For the same compound, in the test on Aspergillus flavus fungi (read-out: MIC), the MIC was 2 µg/mL (≈ 6.53 µM).

Usually MIC stands for the smallest concentration in the dilution series that meets the test's criterion for growth inhibition. As usually defined, the IC50 is the concentration at which inhibition is half-maximal.
